In patent US20240239755A1, “SUBSTITUTED PYRIDAZINONES, SALTS OR N-OXIDES THEREOF AND THEIR USE AS HERBICIDALLY ACTIVE SUBSTANCES” (Bayer Aktiengesellschaft, priority 2021, published 2024):

Key:
Format in all cases: in vivo
[1] = tested on: Abutilon theophrasti (ABUTH); assay: Herbicidal pre-emergence action, 1280 g/ha (Table A1); details: visual grading after ca. 3 weeks vs untreated controls
Description: (§1) Seeds of mono- and dicotyledonous weed plants were sown in plastic pots (double sowings with one species of mono- and one species of dicotyledonous weed plants per pot), in sandy loam, and covered with soil. The compounds according to the invention, formulated in the form of wettable powders (WP) or as emulsifiable concentrates (EC), were applied to the surface of the covering soil as an aqueous suspension or as an emulsion, with the addition of 0.5% of an additive, at an application rate of 600 litres of water per hectare (converted). Following treatment, the pots were placed in a greenhouse and kept under optimum growth conditions for the test plants. The visual grading of the damage to the test plants was carried out after ca. 3 weeks in comparison to untreated controls (herbicidal effect in percent (%): 100% effect=plants have died, 0% effect=as control plants). Tables A1 to A11 below, show the effects of selected compounds of the general formula (I) according to Table 1 on various harmful plants and an application rate corresponding to 1280 g/ha obtained by the experimental procedure mentioned above.

Lolium rigidum (LOLRI) [2] = assay: Herbicidal pre-emergence action, 1280 g/ha (Table A5); details: visual grading after ca. 3 weeks vs untreated controls
Description: as §1

[3] = tested on: Matricaria inodora (MATIN); assay: Herbicidal pre-emergence action, 1280 g/ha (Table A6); details: visual grading after ca. 3 weeks vs untreated controls
Description: as §1

Setaria viridis (SETVI) = assay: Herbicidal pre-emergence action, 1280 g/ha (Table A8); details: visual grading after ca. 3 weeks vs untreated controls
Description: as §1

Stellaria media (STEME) [4] = assay: Herbicidal pre-emergence action, 1280 g/ha (Table A9); details: visual grading after ca. 3 weeks vs untreated controls
Description: as §1

[5] = tested on: Abutilon theophrasti (ABUTH); assay: Herbicidal post-emergence action, 1280 g/ha (Table B1); details: visual assessment after ca. 3 weeks vs untreated controls
Description: (§2) Seeds of mono- and dicotyledonous weed plants were sown in plastic pots (double sowings with one species of mono- and one species of dicotyledonous weed plants per pot), in sandy loam, covered with soil and grown under controlled growth conditions. 2 to 3 weeks after sowing, the test plants were sprayed in the single-leaf stage. The compounds according to the invention, formulated in the form of wettable powders (WP) or as emulsifiable concentrates (EC), were sprayed onto the green plant parts as an aqueous suspension or as an emulsion, with the addition of 0.5% of an additive, at an application rate of 600 litres of water per hectare (converted). The test plants were placed in the greenhouse for ca. 3 weeks under optimum growth conditions, and then the effect of the preparations was assessed visually in comparison with untreated controls (herbicidal effect in percent (%): 100% effect=plants have died, 0% effect=as control plants). Tables B1 to B11 below, show the effects of selected compounds of the general formula (I) according to Table 1 on various harmful plants using an application rate corresponding to 1280 g/ha obtained by the experimental procedure mentioned above.

Stellaria media (STEME) [6] = assay: Herbicidal post-emergence action, 1280 g/ha (Table B9); details: visual assessment after ca. 3 weeks vs untreated controls
Description: as §2

Veronica persica (VERPE) [7] = assay: Herbicidal post-emergence action, 1280 g/ha, VERPE; details: visual grading vs untreated controls
Description: as §2, with “plants).” for “plants). Tables B1 to B11 below, show the effects of selected compounds of the general formula (I) according to Table 1 on various harmful plants using an application rate corresponding to 1280 g/ha obtained by the experimental procedure mentioned above.”
(§3) Tables B1 to B11 below, show the effects of selected compounds of the general formula (I) according to Table 1 on various harmful plants using an application rate corresponding to 1280 g/ha obtained by the experimental procedure mentioned above.

[8] = tested on: Amaranthus retroflexus (AMARE); assay: Herbicidal post-emergence action, 1280 g/ha, AMARE; details: visual grading vs untreated controls
Description: as §2, with “plants).” for “plants). Tables B1 to B11 below, show the effects of selected compounds of the general formula (I) according to Table 1 on various harmful plants using an application rate corresponding to 1280 g/ha obtained by the experimental procedure mentioned above.”
as §3

[9] = tested on: Abutilon theophrasti (ABUTH); assay: Herbicidal post-emergence action, 320 g/ha, ABUTH; details: visual grading after ca. 3 weeks
Description: as §2, with “plants).” for “plants). Tables B1 to B11 below, show the effects of selected compounds of the general formula (I) according to Table 1 on various harmful plants using an application rate corresponding to 1280 g/ha obtained by the experimental procedure mentioned above.”
(§4) Tables D1 to D8 below, show the effects of selected compounds of the general formula (I) according to Table 1 on various harmful plants using an application rate corresponding to 320 g/ha obtained by the experimental procedure mentioned above.

Stellaria media (STEME) [10] = assay: Herbicidal post-emergence action, 320 g/ha, STEME; details: visual grading after ca. 3 weeks
Description: as §2, with “plants).” for “plants). Tables B1 to B11 below, show the effects of selected compounds of the general formula (I) according to Table 1 on various harmful plants using an application rate corresponding to 1280 g/ha obtained by the experimental procedure mentioned above.”
as §4

[11] = tested on: Amaranthus retroflexus (AMARE); assay: Herbicidal post-emergence action, 320 g/ha, AMARE; details: visual grading after ca. 3 weeks
Description: as §2, with “plants).” for “plants). Tables B1 to B11 below, show the effects of selected compounds of the general formula (I) according to Table 1 on various harmful plants using an application rate corresponding to 1280 g/ha obtained by the experimental procedure mentioned above.”
as §4

Kochia scoparia (KCHSC) [12] = assay: Herbicidal post-emergence action, 1280 g/ha (Table B4); details: visual assessment after ca. 3 weeks vs untreated controls
Description: as §2

Lolium rigidum (LOLRI) [13] = assay: Herbicidal post-emergence action, 1280 g/ha (Table B5); details: visual assessment after ca. 3 weeks vs untreated controls
Description: as §2

[14] = tested on: Matricaria inodora (MATIN); assay: Herbicidal post-emergence action, 1280 g/ha (Table B6); details: visual assessment after ca. 3 weeks vs untreated controls
Description: as §2

Lolium rigidum (LOLRI) [15] = assay: Herbicidal post-emergence action, 320 g/ha, LOLRI; details: visual grading after ca. 3 weeks
Description: as §2, with “plants).” for “plants). Tables B1 to B11 below, show the effects of selected compounds of the general formula (I) according to Table 1 on various harmful plants using an application rate corresponding to 1280 g/ha obtained by the experimental procedure mentioned above.”
as §4

[16] = tested on: Matricaria inodora (MATIN); assay: Herbicidal post-emergence action, 320 g/ha, MATIN; details: visual grading after ca. 3 weeks
Description: as §2, with “plants).” for “plants). Tables B1 to B11 below, show the effects of selected compounds of the general formula (I) according to Table 1 on various harmful plants using an application rate corresponding to 1280 g/ha obtained by the experimental procedure mentioned above.”
as §4

Veronica persica (VERPE) [17] = assay: Herbicidal post-emergence action, 320 g/ha, VERPE; details: visual grading after ca. 3 weeks
Description: as §2, with “plants).” for “plants). Tables B1 to B11 below, show the effects of selected compounds of the general formula (I) according to Table 1 on various harmful plants using an application rate corresponding to 1280 g/ha obtained by the experimental procedure mentioned above.”
as §4

Kochia scoparia (KCHSC) [18] = assay: Herbicidal pre-emergence action, 1280 g/ha (Table A4); details: visual grading after ca. 3 weeks vs untreated controls
Description: as §1

[19] = tested on: Amaranthus retroflexus (AMARE); assay: Herbicidal pre-emergence action, 1280 g/ha (Table A11); details: visual grading after ca. 3 weeks vs untreated controls
Description: as §1

Lolium rigidum (LOLRI) [20] = assay: Herbicidal pre-emergence action, 320 g/ha (Table C2); details: visual grading after ca. 3 weeks vs untreated controls
Description: as §1, with “Tables C1” for “Tables A1”, “to C6” for “to A11”, “plants using” for “plants and”, “to 320” for “to 1280”

Cc1nn(C)c(=O)c(Oc2cc(Cl)ccc2C2CC2)c1O [Example I-071]
90%: herbicidal effect ABUTH [1] | herbicidal effect SETVI (Setaria viridis (SETVI)) | herbicidal effect STEME (Stellaria media (STEME) [4]) | herbicidal effect VERPE (Veronica persica (VERPE) [7]) | herbicidal effect STEME (Stellaria media (STEME) [10]) | herbicidal effect AMARE [11]
100%: herbicidal effect LOLRI (Lolium rigidum (LOLRI) [2]) | herbicidal effect MATIN [3] | herbicidal effect ABUTH [5] | herbicidal effect STEME (Stellaria media (STEME) [6]) | herbicidal effect AMARE [8] | herbicidal effect ABUTH [9]

CC(=O)Oc1c(C)nn(C)c(=O)c1Oc1ccccc1OC(F)F [Example I-081]
100%: herbicidal effect ABUTH [5] | herbicidal effect KCHSC (Kochia scoparia (KCHSC) [12]) | herbicidal effect MATIN [14] | herbicidal effect VERPE (Veronica persica (VERPE) [7]) | herbicidal effect AMARE [8]
90%: herbicidal effect LOLRI (Lolium rigidum (LOLRI) [2]) | herbicidal effect MATIN [3] | herbicidal effect STEME (Stellaria media (STEME) [4]) | herbicidal effect LOLRI (Lolium rigidum (LOLRI) [13]) | herbicidal effect STEME (Stellaria media (STEME) [6]) | herbicidal effect ABUTH [9] | herbicidal effect LOLRI (Lolium rigidum (LOLRI) [15]) | herbicidal effect MATIN [16] | herbicidal effect STEME (Stellaria media (STEME) [10]) | herbicidal effect AMARE [11]

CCOC(=O)Oc1c(C)nn(C)c(=O)c1Oc1c(F)cccc1C1CC1 [Example I-085]
100%: herbicidal effect LOLRI (Lolium rigidum (LOLRI) [2]) | herbicidal effect ABUTH [5] | herbicidal effect KCHSC (Kochia scoparia (KCHSC) [12]) | herbicidal effect LOLRI (Lolium rigidum (LOLRI) [13]) | herbicidal effect MATIN [14] | herbicidal effect STEME (Stellaria media (STEME) [6]) | herbicidal effect VERPE (Veronica persica (VERPE) [7]) | herbicidal effect AMARE [8] | herbicidal effect STEME (Stellaria media (STEME) [10])
90%: herbicidal effect STEME (Stellaria media (STEME) [4]) | herbicidal effect ABUTH [9] | herbicidal effect LOLRI (Lolium rigidum (LOLRI) [15]) | herbicidal effect VERPE (Veronica persica (VERPE) [17]) | herbicidal effect AMARE [11]

Cc1nn(C)c(=O)c(Oc2cc(F)c(F)cc2C2CC2)c1O [Example I-101]
90%: herbicidal effect SETVI (Setaria viridis (SETVI)) | herbicidal effect KCHSC (Kochia scoparia (KCHSC) [12]) | herbicidal effect LOLRI (Lolium rigidum (LOLRI) [13]) | herbicidal effect MATIN [14] | herbicidal effect LOLRI (Lolium rigidum (LOLRI) [20]) | herbicidal effect ABUTH [9] | herbicidal effect STEME (Stellaria media (STEME) [10]) | herbicidal effect VERPE (Veronica persica (VERPE) [17]) | herbicidal effect AMARE [11]
100%: herbicidal effect KCHSC (Kochia scoparia (KCHSC) [18]) | herbicidal effect LOLRI (Lolium rigidum (LOLRI) [2]) | herbicidal effect MATIN [3] | herbicidal effect STEME (Stellaria media (STEME) [4]) | herbicidal effect AMARE [19] | herbicidal effect ABUTH [5] | herbicidal effect STEME (Stellaria media (STEME) [6]) | herbicidal effect VERPE (Veronica persica (VERPE) [7]) | herbicidal effect AMARE [8]
